From US4761478A, “3-deazaguanine sulfonic acid salts” (Warner-Lambert Company, priority 1986, dated 1988)
“Also recorded” adds a separate entry of the source. Counter-ions that a name gives are not always drawn. Like-named read-outs stand apart in the source and are kept apart here.

Assays:
[1] = trimetrexate acid addition salts in water; data from U.S. Pat. No. 4,376,858; cited from earlier work
[2] = Water solubility of 3-deazaguanine and its acid addition salts (Table I); assay type: physicochemical; details: for Solubility: 3-deazaguanine salts in water; for water solubility (in words) / ml Water Needed to Dissolve: 3-deazaguanine salts; for ml Water Needed to Dissolve: 250 mg 3-deazaguanine plus one equivalent weight of the acid, water added until complete solution
Description: The common acids employed for the formulation of acid addition salts of pharmaceutical bases are listed in J. Pharm. […] The solubility values presented in Table I were determined as follows: 3-deazaguanine (250 mg) was suspended in a small volume of water and one equivalent weight of the acid was added with stirring. Stirring was continued and small volumes of water were added intermittently until complet solution was obtained.

[3] = Relative solubility of m-AMSA acid addition salts (Table III); assay type: physicochemical
[4] = Aqueous solution of 3-deazaguanine methanesulfonate salt remaining clear and free of precipitate; assay type: physicochemical; details: in water
Description: To a slurry of 24.5 g of 6-amino-1,5-dihydro-4H-imidazo-[4,5-c]pyridin-4-one (3-deazaguanine) in 250 ml of methyl alcohol was added a solution of 17.0 g of methanesulfonic acid in 50 ml of methyl alcohol. The mixture was stirred at room temperature for about 10 minutes, filtered, and the filter cake washed with methyl alcohol to give, after drying, 35.5 g (88%) of 3-deazaguanine methanesulfonate salt, mp 273°-275° C. This material produced a solution in water at a concentration of 41 mg/ml which remained clear and free of any precipitate for more than three days.

[5] = Solubility of trimetrexate acid addition salts in water (Table II); assay type: physicochemical; details: decreasing order of solubility
[6] = Chemical stability of the sodium salt of 3-deazaguanine in aqueous solution; assay type: physicochemical; details: aqueous solution of sodium salt of 3-deazaguanine

SMILES | Solubility [1] [µg/mL] | Solubility [2] [µg/mL] | ml Water Needed to Dissolve [2] [mL] | also measured
COc1cc(NCc2ccc3nc(N)nc(N)c3c2C)cc(OC)c1OC [2-Naphthalenesulfonic] | 150 | – | – | –
COc1cc(NCc2ccc3nc(N)nc(N)c3c2C)cc(OC)c1OC [Ethoxyacetic] | 19500 | – | – | –
Nc1cc2nc[nH]c2c(=O)[nH]1 [H2 SO4] | – | 800 to 1000 | 250 to 300 | water solubility (in words) ([2]; water, listed as sulfate): poorly soluble; water solubility (in words) ([2]; water, listed as sulfate salt): lower solubility; solubility relative to the corresponding free base ([2]; sulfate salt of 3-deazaguanine vs free base): about one-half
Nc1cc2nc[nH]c2c(=O)[nH]1 [H3 PO4] | – | 1900 to 2100 | 120 to 130 | –
Nc1cc2nc[nH]c2c(=O)[nH]1 [HCl] | – | 3300 to 3800 | 65 to 75 | –
Nc1cc2nc[nH]c2c(=O)[nH]1 [Maleic] | – | 1600 to 1700 | 150 to 160 | –
CS(=O)(=O)O.Nc1cc2nc[nH]c2c(=O)[nH]1 [Methanesulfonic, 3-deazaguanine methanesulfonate salt] | 9830 | – | 5 | solubility compared with other m-AMSA salts (in words) [3]: one of the least soluble salts; time the solution remained clear and free of any precipitate ([4]; 41 mg/ml): more than three; Solubility ([4]; read-out: concentration of solution produced in water): 41000 µg/mL; water solubility (in words) ([2]; water): solubility advantage; Solubility ([2]; water, read-out: Solubility): 50000 µg/mL; order of solubility among the trimetrexate salts tested [5]: sixth
COc1cc(NCc2ccc3nc(N)nc(N)c3c2C)cc(OC)c1OC [p-Toluenesulfonic] | 1730 | – | – | –
Nc1cc2nc[nH]c2c(=O)[nH]1 [sodium salt] | – | – | – | chemical stability in aqueous solution (in words) [6]: tend to begin to degrade within a few hours of formulation; also recorded: chemically unstable
